Source: PubChem BioAssay (NCI)
Where “and” joins values, the source holds several entries; their conditions need not be identical. Equal entries are not always repeated.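 Compound exposure: 48 hours, 5 concentrations, 96-well plates. GI50 = concentration required for 50% inhibition of growth. TGI is the concentration that stops growth completely.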

How the values were obtained:
Assay in all cases: inhibition of tumour cell growth, NCI panel, 48 h
[1] = tested on: 786-0 renal
[2] = tested on: A498 renal
[3] = tested on: A549 NSCLC
[4] = tested on: ACHN renal
[5] = tested on: BT-549 breast
[6] = tested on: CAKI-1 renal
[7] = tested on: CCRF-CEM leukemia
[8] = tested on: COLO 205 colon
[9] = tested on: DU-145 prostate
[10] = tested on: EKVX NSCLC
[11] = tested on: HCC-2998 colon
[12] = tested on: HCT-116 colon
[13] = tested on: HCT-15 colon
[14] = tested on: HL-60(TB) leukemia
[15] = tested on: HOP-62 NSCLC
[16] = tested on: HOP-92 NSCLC
[17] = tested on: HS 578T breast
[18] = tested on: HT29 colon
[19] = tested on: IGROV1 ovarian
[20] = tested on: K-562 leukemia
[21] = tested on: KM12 colon
[22] = tested on: LOX IMVI melanoma
[23] = tested on: M14 melanoma
[24] = tested on: MALME-3M melanoma
[25] = tested on: MCF7 breast
[26] = tested on: MDA-MB-231 breast
[27] = tested on: MOLT-4 leukemia
[28] = tested on: NCI-H226 lung
[29] = tested on: NCI-H23 lung
[30] = tested on: NCI-H460 lung
[31] = tested on: NCI/ADR-RES ovarian
[32] = tested on: OVCAR-3 ovarian
[33] = tested on: OVCAR-4 ovarian
[34] = tested on: OVCAR-5 ovarian
[35] = tested on: OVCAR-8 ovarian
[36] = tested on: PC-3 prostate
[37] = tested on: RPMI-8226 leukemia
[38] = tested on: RXF 393 renal
[39] = tested on: SF-268 CNS
[40] = tested on: SF-295 CNS
[41] = tested on: SF-539 CNS
[42] = tested on: SK-MEL-28 melanoma
[43] = tested on: SK-MEL-5 melanoma
[44] = tested on: SK-OV-3 ovarian
[45] = tested on: SN12C renal
[46] = tested on: SNB-19 CNS
[47] = tested on: SNB-75 CNS
[48] = tested on: SR leukemia
[49] = tested on: SW-620 colon
[50] = tested on: T-47D breast
[51] = tested on: TK-10 renal
[52] = tested on: U251 CNS
[53] = tested on: UACC-62 melanoma
[54] = tested on: UO-31 renal
[55] = tested on: MDA-MB-435
[56] = tested on: NCI-H522 lung
[57] = tested on: SK-MEL-2 melanoma
[58] = tested on: UACC-257 melanoma

SMILES: COc1ccc2c(c1)NC(=O)CN2c1nc(NC2CC2)nc2ccccc12
- GI50 [1]: 0.00905 µM
- TGI [1]: 18.6 µM
- GI50 [2]: 0.00185 µM
- GI50 [3]: 0.00128 µM
- TGI [3]: > 100 µM
- TGI [4]: > 100 µM
- GI50 [5]: 0.00423 µM
- TGI [5]: 3.11 µM
- TGI [6]: 17.9 µM
- GI50 [7]: 0.000385 µM
- TGI [7]: > 100 µM
- GI50 [8]: 0.000395 µM
- TGI [8]: 0.00241 µM
- GI50 [9]: 0.000452 µM
- TGI [9]: 2.83 µM
- TGI [10]: 77.5 µM
- GI50 [11]: 0.00106 µM
- TGI [11]: 1.42 µM
- GI50 [12]: 0.000424 µM
- TGI [12]: 13.3 µM
- GI50 [13]: 0.000556 µM
- TGI [13]: > 100 µM
- GI50 [14]: 0.000503 µM
- TGI [14]: 0.00313 µM
- GI50 [15]: 0.00433 µM
- TGI [15]: 10.5 µM
- GI50 [16]: 2.66 µM
- TGI [16]: 17.5 µM
- GI50 [17]: 0.00359 µM
- TGI [17]: 25 µM
- GI50 [18]: 0.000347 µM
- TGI [19]: 6.43 µM
- GI50 [20]: 0.000336 µM
- TGI [20]: > 100 µM
- GI50 [21]: 0.000396 µM
- TGI [21]: > 100 µM
- GI50 [22]: 0.000901 µM
- TGI [22]: 55.5 µM
- GI50 [23]: 0.000367 µM
- TGI [23]: > 100 µM
- GI50 [24]: 2.01 µM
- TGI [24]: 84.7 µM
- GI50 [25]: 0.000386 µM
- TGI [25]: 14.7 µM
- GI50 [26]: 0.000858 µM
- TGI [26]: > 100 µM
- GI50 [27]: 0.00255 µM
- TGI [27]: > 100 µM
- TGI [28]: > 100 µM
- GI50 [29]: 0.00112 µM
- TGI [29]: 16.2 µM
- GI50 [30]: 0.000405 µM
- TGI [30]: > 100 µM
- GI50 [31]: 0.000651 µM
- TGI [31]: 0.00677 µM
- GI50 [32]: 0.000368 µM
- TGI [32]: 0.011 µM
- TGI [33]: > 100 µM
- TGI [34]: > 100 µM
- GI50 [35]: 0.00234 µM
- TGI [35]: 46.9 µM
- GI50 [36]: 0.000563 µM
- TGI [36]: > 100 µM
- GI50 [37]: 0.00182 µM
- TGI [37]: 16.4 µM
- GI50 [38]: 0.00178 µM
- GI50 [39]: 0.00204 µM
- TGI [39]: 14.4 µM
- GI50 [40]: 0.00211 µM
- TGI [40]: 0.00611 µM and 0.0191 µM
- GI50 [41]: 0.00232 µM
- TGI [41]: 0.00804 µM
- GI50 [42]: 0.847 µM
- TGI [42]: > 100 µM
- GI50 [43]: 0.000552 µM
- GI50 [44]: 0.00182 µM
- GI50 [45]: 0.00491 µM
- TGI [45]: > 100 µM
- GI50 [46]: 0.00154 µM
- TGI [46]: 24.5 µM
- GI50 [47]: 0.00199 µM
- TGI [47]: 18.7 µM
- GI50 [48]: 0.000274 µM
- GI50 [49]: 0.000383 µM
- TGI [49]: > 100 µM
- GI50 [50]: 0.23 µM
- TGI [50]: 7.13 µM
- TGI [51]: 14.9 µM
- GI50 [52]: 0.00106 µM
- TGI [52]: 18.4 µM
- GI50 [53]: 0.000876 µM
- TGI [53]: 13.2 µM
- GI50 [54]: 0.031 µM
- TGI [54]: 10.2 µM

SMILES: c1ccc(C(NC2CCCCC2NCCNC2CCCCC2NC(c2ccccc2)(c2ccccc2)c2ccccc2)(c2ccccc2)c2ccccc2)cc1 (stereo not drawn)
- TGI [2]: 65.5 µM
- TGI [3]: > 100 µM
- TGI [4]: > 100 µM
- TGI [5]: 54.1 µM
- TGI [6]: > 100 µM
- TGI [7]: > 100 µM
- TGI [8]: > 100 µM
- TGI [9]: > 100 µM
- TGI [10]: > 100 µM
- TGI [12]: 53.6 µM
- TGI [13]: > 100 µM
- TGI [15]: > 100 µM
- TGI [16]: 33.7 µM
- TGI [17]: 45.3 µM
- TGI [18]: > 100 µM
- TGI [19]: > 100 µM
- TGI [20]: > 100 µM
- TGI [21]: > 100 µM
- TGI [22]: 47.7 µM
- TGI [25]: 42.1 µM
- TGI [26]: > 100 µM
- TGI [55]: 32.7 µM
- TGI [27]: > 100 µM
- TGI [29]: > 100 µM
- TGI [30]: > 100 µM
- TGI [56]: 39.5 µM
- TGI [32]: > 100 µM
- TGI [33]: > 100 µM
- TGI [34]: > 100 µM
- TGI [35]: > 100 µM
- TGI [36]: > 100 µM
- TGI [37]: > 100 µM
- TGI [39]: > 100 µM
- TGI [40]: > 100 µM
- TGI [41]: > 100 µM
- TGI [57]: > 100 µM
- TGI [42]: > 100 µM
- TGI [43]: > 100 µM
- TGI [44]: > 100 µM
- TGI [45]: > 100 µM
- TGI [46]: > 100 µM
- TGI [48]: > 100 µM
- TGI [49]: > 100 µM
- TGI [50]: > 100 µM
- TGI [51]: > 100 µM
- TGI [52]: 33.9 µM
- TGI [58]: > 100 µM
- TGI [53]: > 100 µM
- TGI [54]: 71.2 µM
